“And” between values parts separate entries of the source, which are not always exact repeats. Identical values can stand only once. After the bases stand the sugars from the 5' end (letter, count) and the backbone: PS all phosphorothioate, else s phosphorothioate and o phosphodiester by linkage. Methylation of C is not given here. e = 2'-O-(2-methoxyethyl) (MOE); k = constrained ethyl (cEt); d = 2'-deoxy (DNA)
Biological target: IRF4
Conditions: ASO

Row | Sequence | target mRNA inhibition (SK-MEL-28, 4 µM) | also measured
1 | GGGATTATATACTGGT (sugars kkdddddddddkdkdk, PS) |  | target mRNA inhibition (MM.1R, 1 µM): 41%
2 | GGGCTTCCTAGGTTTC (sugars k3 d10 k3, PS) | 39% | 
3 | GGGTACATGGCAGTGG (sugars k3 d10 k3, PS) | 68% | target mRNA inhibition (SK-MEL-28, 0.185 µM): 19%; target mRNA inhibition (SK-MEL-28, 5 µM): 76%; target mRNA inhibition (SK-MEL-28, 15 µM): 92%
4 | GGGTACCCTGCGCTGC (sugars k3 d10 k3, PS) | 44% | 
5 | GGGTCCTCCGCCCGCT (sugars k3 d10 k3, PS) | 28% | 
6 | GGTAAACTGCCTTAGG (sugars k3 d10 k3, PS) | 25% | 
7 | GGTAAAGGAGTGCAGG (sugars k3 d10 k3, PS) | 46% | 
8 | GGTAAAGGCACATTCC (sugars k3 d10 k3, PS) | 47% | 
9 | GGTAACAATACTGTAA (sugars k3 d10 k3, PS) | 59% | 
10 | GGTAAGGGCCCCGTGA (sugars k3 d10 k3, PS) | 33% | 
11 | GGTACGGGATTTCCGG (sugars k3 d10 k3, PS) |  | target mRNA inhibition (MM.1R, 1 µM): 12%
12 | GGTCAATTTTCACAGT (sugars k3 d10 k3, PS) | 64% | 
13 | GGTCACAGGTAAGGGC (sugars k3 d10 k3, PS) | 25% | 
14 | GGTGAAACTGAGAGTG (sugars k3 d10 k3, PS) | 8% | 
15 | GGTGGCTCAGCAGCTT (sugars k3 d10 k3, PS) | 37% | 
16 | GGTTGGCTGGTCTTTG (sugars kkddddddddddkeke, PS) |  | target mRNA inhibition (MM.1R, 0.0625 µM): 18%; target mRNA inhibition (MM.1R, 0.25 µM): 33%; target mRNA inhibition (MM.1R, 1 µM): 76% and 60%; target mRNA inhibition (MM.1R, 4 µM): 72%
17 | GGTTGGCTGGTCTTTG (sugars kkdddddddddekeke, PS) |  | target mRNA inhibition (MM.1R, 0.0625 µM): 34%; target mRNA inhibition (MM.1R, 0.25 µM): 47%; target mRNA inhibition (MM.1R, 1 µM): 73% and 66%; target mRNA inhibition (MM.1R, 4 µM): 84%
18 | GGTTTATTAGCTTTCT (sugars k3 d10 k3, PS) | -1% | 
19 | GTAAACTGCCTTAGGG (sugars k3 d10 k3, PS) | 44% | 
20 | GTAAAGGTAAAGGCAC (sugars k3 d10 k3, PS) | 42% | 
21 | GTAAATGAGTCGGTCA (sugars k3 d10 k3, PS) | 79% | 
22 | GTAACAATACTGTAAG (sugars k3 d10 k3, PS) | 55% | 
23 | GTAACTCAGGCACCAC (sugars k3 d10 k3, PS) | 47% | 
24 | GTAACTGACACGCACA (sugars k3 d10 k3, PS) | 51% | 

Row | Sequence | target mRNA inhibition (SK-MEL-28, 4 µM) | also measured
25 | GTAACTTGACTTGAGA (sugars k3 d10 k3, PS) | 49% | 
26 | GTAAGAGGGCAGTCAA (sugars k3 d10 k3, PS) | 44% | 
27 | GTAAGATCTCCATGGT (sugars k3 d10 k3, PS) |  | target mRNA inhibition (MM.1R, 1 µM): 17%
28 | GTAAGTGATAGGTATA (sugars k3 d10 k3, PS) | 76% and 68% | 
29 | GTACACTTTGTACGGG (sugars k3 d10 k3, PS) | 64% | 
30 | GTACAGGACAGGTAAA (sugars k3 d10 k3, PS) | 25% | 
31 | GTACAGTCCACTCCAC (sugars k3 d10 k3, PS) | 10% | 
32 | GTACATGGCAGTGGAG (sugars k3 d10 k3, PS) | 56% | 
33 | GTAGAAGCCCACAAGA (sugars k3 d10 k3, PS) | -4% | 
34 | GTAGAGTGAGATGCGG (sugars k3 d10 k3, PS) |  | target mRNA inhibition (MM.1R, 0.0625 µM): -4%; target mRNA inhibition (MM.1R, 0.25 µM): 16%; target mRNA inhibition (MM.1R, 1 µM): 51% and 40%; target mRNA inhibition (MM.1R, 4 µM): 70%
35 | GTAGGTAGGCACCTGT (sugars k3 d10 k3, PS) | 75% | 
36 | GTAGTATGAGAAACGG (sugars kkddddddddddkeke, PS) |  | target mRNA inhibition (MM.1R, 1 µM): 28%
37 | GTAGTATGAGAAACGG (sugars kkdddddddddkekek, PS) |  | target mRNA inhibition (MM.1R, 1 µM): 50%
38 | GTAGTATGAGAAACGG (sugars kkkdddddddddkeke, PS) |  | target mRNA inhibition (MM.1R, 1 µM): 15%
39 | GTAGTATGAGAAACGG (sugars kkkddddddddkekek, PS) |  | target mRNA inhibition (MM.1R, 1 µM): 43%
40 | GTATTAATATTCTGAC (sugars k3 d10 k3, PS) | 63% | 
41 | GTATTTTTCCGTTCCT (sugars k3 d10 k3, PS) |  | target mRNA inhibition (H929, 0.04 µM): 33% and 14%; target mRNA inhibition (KMS11, 0.2 µM): 82% and 96%; target mRNA inhibition (MM.1R, 0.0625 µM): 34%; target mRNA inhibition (MM.1R, 0.25 µM): 57%; target mRNA inhibition (MM.1R, 1 µM): 84% and 74%; target mRNA inhibition (MM.1R, 4 µM): 93%
42 | GTCACGCCCGCAAAAG (sugars k3 d10 k3, PS) | 39% | 
43 | GTCATATGGCTAAACC (sugars k3 d10 k3, PS) |  | target mRNA inhibition (MM.1R, 1 µM): 23%
44 | GTCCACATACCTGAAA (sugars k3 d10 k3, PS) |  | target mRNA inhibition (MM.1R, 1 µM): 8%
45 | GTCCGGTTAGCTCATC (sugars k3 d10 k3, PS) | 45% | 
46 | GTCCTGCTTGCCCGCG (sugars k3 d10 k3, PS) | 31% | 
47 | GTCCTTCAGATTTACA (sugars k3 d10 k3, PS) |  | target mRNA inhibition (MM.1R, 1 µM): -17%
48 | GTCTACTTGAGTCTGT (sugars k3 d10 k3, PS) | 51% | 

Source: the OligoGym collection
